Reference: patent US8299178B2, “Stable micelles formed with diblock copolymers of critical micelle concentration copolymer and temperature-sensitive copolymer” (National Tsing Hua University, priority 2009, dated 2012)

Tests used:
HeLa cells [1] = experiment: MTT cytotoxicity test using HeLa cells; format: cell-based, human
Method: The Dox activities of free Dox and Dox-mixed micelles were determined by performing cytotoxicity tests using HeLa cells (5×10^3 cell/mL). Cells that survived after incubation were estimated by a tetrazolium dye (MTT) assay. Dox-mPEG-b-P(NnPAAm-co-VIm) micelle was used for comparison. […] The IC50 of free Dox and Dox-loaded micelles are summary in Table 3.
Introducing mPEG-b-PLA into the micelle structure not only decreases mPEG-b-P(NIPAAm-co-VIm) quantity, decreases material cytotoxicity with a positive charge (i.e. VIm), but also stabilizes the micellar structure for biomedical use.

HeLa cells [2] = experiment: Internalization of Dox in HeLa cells by confocal laser scanning microscopy; format: cell-based, human; conditions: Dox ca. 10 μg/mL, one hour of incubation
Method: Dox accumulated in HeLa cells was localized using a Carl Zeiss LSM5 PASCAL confocal laser scanning microscopy (CLSM). The HeLa cells were seeded 1×10^5 per well on cover-slides for 24 h and were then treated with free Dox or Dox-mixed micelles. The concentration of Dox was ca. 10 μg/mL. Dox-mixed micelles were washed with PBS to remove untrapped Dox twice before use. After some time, the cells were washed twice with PBS, and then mounted on a slide with 4 wt % paraformaldehyde for CLSM observation. Fluorescence was observed by confocal microscope at 488 nm for excitation and an LP filter of 590 nm for Dox detection.
The time-dependent fluorescence intensity of Dox after Dox-mixed micelles incubated with human cervical epithelioid carcinoma (HeLa) cells was measured with free Dox (Dox-HCl) being used for comparison. […] Subsequently, the acidic endosomal compartment (ca. pH 5.5-5.0) induced Dox release due to mixed micelle dissociation by VIm protonation.

[3] = literature value; cited from earlier work

For COc1cccc2c1C(=O)c1c(O)c3c(c(O)c1C2=O)C[C@@](O)(C(=O)CO)C[C@@H]3O[C@H]1C[C@H](N)[C@H](O)[C@H](C)O1 [Free Dox, doxorubicin], which “Dox activity compared with the Dox-loaded micelles” value (HeLa cells [1]) is on record?
Its value is “more potent activity”.

What about the “localization of Dox in cells” value (HeLa cells [2]) of the same compound?
Its value is “accumulated in both the nucleus and the cytoplasm”.

And the pKa [3]?
Its pKa is about 7.
